The results in this text go back to ChEMBL document CHEMBL1146439, “Novel mono-tetrahydrofuran ring acetogenins, from the bark of Annona squamosa, showing cytotoxic selectivities for the human pancreatic carcinoma cell line, PACA-2” (J Nat Prod, 1997).

SMILES strings stand for the structures. Values after ≈ are worked out from the molar mass of the structure shown.

A short description of series [1]: Toxicity against brine shrimp. The class given is organism-based. The note with it: artemia, in vivo.
The subject of series [2] is A549. The series can be described thus: Cytotoxicity against human A549 cells after 7 days by MTT assay. The note with it: A549, 168 h, read-out: ED50 (the source's name). Format: functional.
Series [3] relates to MCF7. The series can be described thus: Cytotoxicity against human MCF7 cells after 7 days by MTT assay. The note with it: MCF7, 168 h, read-out: ED50 (the source's name). The class given is functional. For orientation: Formazan colour is commonly taken as a measure of viable cells.
The subject of series [4] is HT-29. The series can be described thus: Cytotoxicity against human HT-29 cells after 7 days by MTT assay. Format: functional. Particulars: HT-29, 168 h, read-out: ED50 (the source's name).
Series [5] relates to A498. The series can be described thus: Cytotoxicity against human A498 cells after 7 days by MTT assay. The class given is functional. Particulars: A498, 168 h, read-out: ED50 (the source's name).
Series [6] deals with PC-3. Kind of series: Cytotoxicity against human PC3 cells after 7 days by MTT assay. Particulars: PC-3, 168 h, read-out: ED50 (the source's name). The class given is functional.
For series [7], the system named is MIA PaCa-2. The series can be described thus: Cytotoxicity against human MIAPaCa2 cells after 7 days by MTT assay. Format: functional. The note with it: for EC50: Homo sapiens, MIA PaCa-2, 168 h, read-out: ED50 (the source's name).

In series [1], `CCCCCCCCCCCC[C@@H](O)[C@H]1CC[C@H]([C@H](O)CCCCCC(=O)CCCC[C@@H](O)CC2=C[C@H](C)OC2=O)O1` showed an LC50 of 0.41 µg/mL (≈ 0.689 µM). Besides, the EC50 in series [2] is 0.27 µg/mL (≈ 0.454 µM); in series [3], > 1 µg/mL; in series [4], > 1 µg/mL; in series [5], > 1 µg/mL; in series [6], 0.0096 µg/mL (≈ 0.0161 µM). The ED50 in series [7] is listed as 2.4 ×10⁻⁴ ug/ml.

Consider `CCCCCCCCC/C=C\CC[C@@H](O)[C@H]1CC[C@H]([C@H](O)CCCCCC(=O)CCCC[C@@H]2CC(CC(C)=O)C(=O)O2)O1` (mixture of isomers), for which the LC50 in series [1] was determined as 0.44 µg/mL. Besides, the EC50 is > 1 µg/mL in series [2]; > 1 µg/mL in series [3]; > 1 µg/mL in series [4]; > 1 µg/mL in series [5]; 0.032 µg/mL in series [6]; 0.0022 µg/mL in series [7].

Take `COc1cccc2c1C(=O)c1c(O)c3c(c(O)c1C2=O)C[C@@](O)(C(=O)CO)C[C@@H]3O[C@H]1C[C@H](N)[C@H](O)[C@H](C)O1` [DOXORUBICIN]: in series [1], the 50% lethal concentration (LC50) worked out at 0.26 µg/mL (≈ 0.478 µM). Besides, the EC50 in series [2] came to 0.0053 µg/mL (≈ 0.00975 µM); in series [3], 0.2 µg/mL (≈ 0.368 µM); in series [4] it was 0.02 µg/mL (≈ 0.0368 µM); in series [5], 0.01 µg/mL (≈ 0.0184 µM); in series [6], 0.032 µg/mL (≈ 0.0589 µM); in series [7], 0.018 µg/mL (≈ 0.0331 µM).

Regarding `CCCCCCCCCCCC[C@H](O)[C@H]1CC[C@H]([C@H](O)CCCCCC(=O)CCCC[C@@H](O)CC2=C[C@H](C)OC2=O)O1` [MOSIN B], the 50% lethal concentration (LC50) in series [1] was found to be 0.29 µg/mL (≈ 0.487 µM). In addition, the EC50 in series [2] is 0.94 µg/mL (≈ 1.58 µM); in series [3], > 1 µg/mL; in series [4] it was > 1 µg/mL; in series [5], > 1 µg/mL; in series [6], 0.35 µg/mL (≈ 0.588 µM). Also, the ED50 in series [7] was found to be 2.5 ×10⁻⁴ ug/ml.

As for `CCCCCCCCCCCC[C@H](O)[C@@H]1CC[C@H]([C@H](O)CCCCCC(=O)CCCC[C@@H](O)CC2=C[C@H](C)OC2=O)O1` [MOSIN C], the LC50 in series [1] is 0.15 µg/mL (≈ 0.252 µM). Also, the EC50 in series [2] is 0.6 µg/mL (≈ 1.01 µM); in series [3], > 1 µg/mL; in series [4], > 1 µg/mL; in series [5], > 1 µg/mL; in series [6], > 1 µg/mL. In addition, in series [7], the ED50 was determined as 1.2 ×10⁻⁴ ug/ml.

A word on the LC50: it is the concentration that kills 50% of the test population.
